Patent publication US10226452B2, “Benzoxazolone derivatives as acid ceramidase inhibitors, and their use as medicaments” (FONDAZIONE ISTITUTO ITALIANO DI TECNOLOGIA, priority 2014, dated 2019)

Key:
caspase-3 (h) = caspase-3 (h) (Homo sapiens (Human), UniProt P42574); test: Cerep enzyme inhibition screen: caspase-3; assay type: biochemical; conditions: mean of two determinations, read-out: Inhibitory activity (% Inh. at 10 μM), mean
Source text: Compound of Example 25 falling in both Formula (I) and (Ia) was selected to be tested for off-target effects on a set of enzymes that include proteases (aspartic, cysteine, and serine), cyclooxygenases as well as lipoxygenases and group IV phospholipase (sPLA2) (Table 3). [table]

AC [1] = biological target: AC (Mus musculus (Mouse), UniProt Q9WV54); test: AC activity in RAW264.7 murine cell line; assay type: cell-based; conditions: Raw264.7 cells; 0.1-20 μM; 3 hours
Experimental: Specifically it is reported the concentration response of compound of Example 25 or vehicle (0.1% DMSO in DMEM) on AC activity and ceramide levels in RAW264.7 murine cell line. (A) Intact cells were treated with compound of Example 25 (0.1-20 μM) or vehicle and AC activity was measured 3 hours later in cell lysates. (B-E) Intact cells were exposed to compound of Example 25 (0.1-20 μM) for 3 hours and sphingosine/sphinganine (B), dihydroceramides (C), medium chain ceramides (D), long chain ceramides (E) were quantified. Results are expressed as mean±s.e.m. (n=3). *p<0.05, **p<0.01, ***p<0.001 vs vehicle, two-way ANOVA followed by Dunnet.
(§1) hAC protein preparation (10 μg) was preincubated with inhibitors (final DMSO concentration 1%) in assay buffer (100 mM sodium phosphate, 0.1% Nonidet P-40, 150 mM NaCl, 3 mM DTT, 100 mM sodium citrate, pH 4.5) for 30 min at 37° C. Reactions were started by the addition of 50 μM N-lauroyl ceramide (Nu-Chek Prep, Elysian, Minn.) and carried on for 30 min at 37° C. […] The organic phases were collected, dried under nitrogen and analyzed by UPLC/MS (Acquity, Waters). […]
(§2) The [M−H]^− ion was monitored in the selected-ion monitoring mode (m/z values: lauric acid 199, 11-lauroleic acid 197.35). […] Inhibition of AC activity was calculated as reduction of lauric acid in the samples compared to vehicle controls. […]

AC [2] = biological target: AC (Homo sapiens (Human), UniProt Q13510); test: AC activity in A375 human melanoma cells; assay type: cell-based; conditions: 25 μM, evident at 30 minutes, lasted up to 3 hours
Experimental: (§3) Specifically, FIG. 1 evidences the effects of compound of Example 7 or vehicle (0.1% DMSO in DMEM) on AC activity and ceramide levels in A375 (left panel) or MeWo (right panel) human melanoma cell lines. (A-B) Intact cells were treated with compound of Example 7 (25 μM) or vehicle and AC activity was measured 30 minutes or 3 hours later in cell lysates. (B) Intact cells were exposed to compound of Example 7 (25 μM) for 2 hours or 24 hours and medium chain ceramides (C-D), long chain ceramides (E-F) and dihydroceramides (G-H) were quantified. Results are expressed as mean±s.e.m. (n=3). *p<0.05, **p<0.01, ***p<0.001 vs vehicle, two-way ANOVA followed by Dunnet.
as §1, §2

A375 cells = test: ceramide levels in A375 human melanoma cells; assay type: cell-based; conditions: 25 μM
Experimental: as §3
(§4) Lipids were extracted from mouse tissue lysate with a chloroform/MeOH mixture (2:1 v/v, 3 mL) containing internal standards. The organic phase was collected, dried under nitrogen, and dissolved in chloroform/MeOH (1:3 v/v) for LC-MS analyses. Ceramides, sphingosine and sphinganine were analyzed by LC-MS/MS, using a Waters Acquity UPLC coupled with a Waters Xevo TQMS and interfaced with ESI. Separation was done on a Waters Acquity BEH C18 1.7 μm column (2.1×50 mm) at 60° C. A step gradient of 0.1% formic acid in acetonitrile/water (20:80 v/v) as solvent A and 0.1 formic acid in acetonitrile/isopropyl alcohol (20:80 v/v) as solvent B was applied at a flow rate of 0.4 mL/min. Detection was in the positive ionization mode. Capillary voltage was 3.5 kV and cone voltage was 25 V. The source temperature and desolvation temperatures were set at 120° C. and 600° C. respectively. […]
(§5) Tissue-derived ceramides were identified by comparison of their LC retention times and MS^2 fragmentation patterns with those of authentic standards (Avanti Polar Lipids). Extracted ion chromatograms were used to quantify myristoyl ceramide (C14:0, m/z 510.5>492.5>264.3), palmitoyl ceramide (C16:0, m/z 538.5>520.3>264.3), stearoyl ceramide (C18:0 m/z 566.5>548.3>264.3), lignoceroyl ceramide (C24:0 m/z 650.5>632.3>264.3), nervonoyl ceramide (C24:1 m/z 648.5>630.3>264.3) and using lauroyl ceramide standard (m/z 482.5>464.5>264.3). […]

MeWo cells = test: ceramide levels in MeWo human melanoma cells; assay type: cell-based; conditions: 25 μM
Experimental: as §3, §4, §5

Sequence of AC (Homo sapiens (Human), UniProt Q13510) (Q13510 22-142): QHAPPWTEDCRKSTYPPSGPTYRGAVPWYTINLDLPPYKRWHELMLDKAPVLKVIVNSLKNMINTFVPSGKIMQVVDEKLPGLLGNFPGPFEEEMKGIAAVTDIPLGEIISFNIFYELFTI
Sequence of AC (Homo sapiens (Human), UniProt Q13510) (Q13510 143-395): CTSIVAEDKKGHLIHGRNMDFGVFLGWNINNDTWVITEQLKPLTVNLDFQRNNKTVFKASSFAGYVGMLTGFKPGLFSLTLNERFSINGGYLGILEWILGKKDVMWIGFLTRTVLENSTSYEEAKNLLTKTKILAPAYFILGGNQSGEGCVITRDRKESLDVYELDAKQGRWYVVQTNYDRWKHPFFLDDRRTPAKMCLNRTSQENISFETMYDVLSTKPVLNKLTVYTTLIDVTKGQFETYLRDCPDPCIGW
Sequence of AC (Mus musculus (Mouse), UniProt Q9WV54) (Q9WV54 19-141): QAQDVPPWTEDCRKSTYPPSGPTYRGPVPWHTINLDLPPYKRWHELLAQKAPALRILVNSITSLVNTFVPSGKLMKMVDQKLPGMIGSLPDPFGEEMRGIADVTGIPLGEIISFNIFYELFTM
Sequence of AC (Mus musculus (Mouse), UniProt Q9WV54) (Q9WV54 142-394): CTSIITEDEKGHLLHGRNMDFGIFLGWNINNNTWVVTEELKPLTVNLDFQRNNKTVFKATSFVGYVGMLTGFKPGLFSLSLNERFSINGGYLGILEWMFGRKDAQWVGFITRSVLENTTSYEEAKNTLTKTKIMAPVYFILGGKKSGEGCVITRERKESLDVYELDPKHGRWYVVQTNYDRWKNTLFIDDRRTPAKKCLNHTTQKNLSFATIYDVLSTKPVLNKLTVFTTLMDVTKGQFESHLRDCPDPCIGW
Sequence of caspase-3 (h) (P42574 29-175): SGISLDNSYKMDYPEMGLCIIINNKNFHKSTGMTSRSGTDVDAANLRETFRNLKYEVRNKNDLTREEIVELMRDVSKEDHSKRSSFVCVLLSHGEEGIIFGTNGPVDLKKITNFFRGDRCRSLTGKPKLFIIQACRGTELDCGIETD
Sequence of caspase-3 (h) (P42574 176-277): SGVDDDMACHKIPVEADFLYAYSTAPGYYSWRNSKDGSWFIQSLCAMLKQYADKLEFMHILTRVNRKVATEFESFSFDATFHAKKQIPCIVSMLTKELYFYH

Row | SMILES | inhibition at 10 µM (caspase-3 (h)) | AC activity (AC [1]) | AC activity (AC [2]) | duration of effects on ceramide levels (A375 cells; A375 cells (low AC expression)) | di-hydro ceramide species levels (A375 cells; A375 cells) | ceramide species levels (cer(d18:1/14:0), cer(d18:1/16:0), cer(d18:1/18:0), cer(d18:1/24:1)) (A375 cells; A375 cells, LC/MS) | duration of effects on ceramide levels (MeWo cells; MeWo cells (high AC expression)) | di-hydro ceramide species levels (MeWo cells; MeWo cells) | ceramide species levels (cer(d18:1/14:0), cer(d18:1/16:0), cer(d18:1/18:0), cer(d18:1/24:1)) (MeWo cells; MeWo cells, LC/MS)
1 | O=C(NCCCCc1ccccc1)n1c(=O)oc2cc(-c3ccc(F)cc3)ccc21 [Example 25, 6-(4-Fluorophenyl)-2-oxo-N-(4-phenylbutyl)-1,3-benzoxazole-3-carboxamide] | 1.9% | concentration dependent reduction in AC activity |  |  |  |  |  |  | 
2 | O=C(NCCCCc1ccccc1)n1c(=O)oc2cc(Br)ccc21 [Example 7, 6-Bromo-2-oxo-N-(4-phenylbutyl)-1,3-benzoxazole-3-carboxamide] |  |  | reduction in AC activity | lasted up to 24 hours | significant increase in all di-hydro ceramide species analyzed | intracellular accumulation of various ceramide species | recovered the initial phenotype after 24 hours | significant increase in all di-hydro ceramide species analyzed | intracellular accumulation of various ceramide species
